Results on 13 compounds are retold here after US7642265B2, “Benzimidazoles and analogs thereof as antivirals” (Isis Pharmaceuticals, Inc., priority 2002, dated 2010).

Where two headings read alike, the source gives them in different places.

For orientation: MRT means a mean duration of stay, worked out from the concentration-time curve. As usually defined, the half-life is how long it takes for the measured level to halve. What is called AUC is concentration integrated over time.

In data set [1] the test system is stem IIa region of the HCV IRES (5′-UTR of HCV RNA). Description: Mass spectrometry based binding assay. To be noted: for binding percentage of ligand to target: Table 1, ligand 50 μM, IIa target 2.5 μM.
A short description of data set [2]: Single dose in vivo pharmacokinetic study. Set-up: species or system rats. To be noted: plasma, rat, single 3.0 mg/kg IV dose, mean; for AUC: iv, 3 mg/kg. As for the experimental part:
A single dose pharmacokinetic study was performed to investigate the pharmacokinetics of representative compounds. Of particular interest was the ability of the compounds to accumulate in liver, which is the target tissue for HCV chemotherapy as it is the primary reservoir of virus. 3-4 rats per group were administered a single dose (3 mg/kg intravenously, IV or 6 mg/kg orally, PO). Blood samples were taken at 0.25, 0.5, 1, 2, 3, 4, 6, and 8 h timepoints, and pharmacokinetic parameters calculated. Both representative compounds were rapidly distributed to tissues, as evidenced by the high clearance rates and volumes of distribution, and low levels of excretion (ca 10% of total drug in urine and feces at 8 h). Major tissues were examined for presence of drug. […] The tissue accumulation for the IV dose is shown in FIG. 1, as a function of concentration and percent of total administered dose.

`Nc1nc2ccccc2n1CCCN1CCCC1`: the “binding percentage of ligand to target” value in data set [1] is 15%.
On the same count and under the same terms, to `CCN(CC)CCn1c(N)nc2ccccc21` belongs 15%.
On the same count and under the same terms, in the case of `CN(C)CCn1c(N)nc2ccccc21` it was 11%.
On the same count and under the same terms, in the case of `Nc1nc2ccccc2n1CCOc1ccccc1` it was 6%.
`COc1ccc2nc(N)n(CCCN(C)C)c2c1` showed an MS target selectivity in data set [1] (Table 2) of approximately 10.
For `CN(C)CCCOc1ccc2nc(N)[nH]c2c1`, the “MS target selectivity” value in data set [1] (Table 3) was approximately 2.
In data set [2], `CN(C)CCCn1c(N)nc2ccc(OCCCN(C)Cc3ccco3)cc21` [IBIS00405678] gave an MRT of 3.1 h and a half-life of 37.5 h. For the same compound, the AUC in data set [2] (read-out: AUC) came to 311 ng·h/mL. The AUC in data set [2] (read-out: AUC Extrap) stood at 1930 ng·h/mL.
The matching figures for `CN(C)CC1CNc2nc3ccc(OCCCN(C)Cc4ccccn4)cc3n2C1` (stereo not shown) [IBIS00528637]: 2 h, 14 h, 165 ng·h/mL and 320 ng·h/mL.
Consider `CN(C)CCCn1c(N)nc2ccccc21` [drawing 73], for which the “binding percentage of ligand to target” value in data set [1] came to 56% binding.
Turning to `CN(C)CCCn1c(N)nc2ccccc21` [drawing 78], in data set [1] (Table 2), the MS target selectivity is approximately 3.
Turning to `CN(C)CCCOc1ccc2nc(N)n(CCCN(C)C)c2c1` [drawing 80], the MS target selectivity in data set [1] (Table 2) was approximately 15.
As to `CN(C)CCCOc1ccc2nc(N)n(CCCN(C)C)c2c1` [drawing 81], the “MS target selectivity” value in data set [1] (Table 3) is reported as approximately 15.
Same read-out and setting: in the case of `CN(C)CCCn1c(N)nc2ccccc21` [drawing 82] it was approximately 3.
